Experiments:
[1] = test system: Echinochloa crus-galli; assay: External application of the compound to Echinochloa crus-galli seeds on agar medium, radicle and embryo length; format: in vivo; settings: 500 mg/L in 0.8% agar, 28° C., 3 days in the dark, 3 biological repeats
Procedure: I. Procedures for External Application of the Compound to Lettuce and Echinochloa crus-galli Compounds to be tested: isoorientin and isoorientin-2″-O-glucopyranoside. (1) The compounds to be tested were dried into powder with a centrifugal concentrator and weighed, a proper amount of sterile water was added to make its final concentration to be 10 mg/mL. (2) 500 mL of 0.8% agar was prepared and sterilized in an autoclave. […] solution of the compounds to be tested at a concentration of 10 mg/mL were added to make the final concentration of the compounds to be 500 mg/L. The medium containing the compound to be tested was quickly poured into a 10 cm×10 cm square dish, and the square dish was shaken quickly so that the medium was evenly spread in the square dish. The medium added with equal amount of sterile water was used as control. (4) The seeds of Echinochloa crus-galli were washed with distilled water for several times, and then placed on sterile filter paper to dry. (5) After the medium had solidified, the seeds of Echinochloa crus-galli were placed with sterile tweezers on the medium, and 26 seeds were placed in each petri dish (2 rows, with 13 seeds in each row). Each treatment had 3 biological repeats. (6) The petri dishes were placed in an incubator at 28° C. for 3 days in the dark. (7) Phenotypic statistics: after 3 days, the length of radicle and embryo of each treated material were counted.

[2] = test system: Os02g0589400 recombinant protein; assay: In vitro enzymatic activity of Os02g0589400 (glycosylation of isoorientin with UDPG, UPLC-QTOF/MS); format: biochemical, Oryza sativa L. ssp. japonica cv. Zhonghua 11 (ZH11); settings: glycosyl donor UDPG, Tris-HCl pH 7.0, 30° C., 1 hour
Procedure: The enzymatic activity reaction system was: 38 μL of Tris-HCl (pH 7.0, 50 mM, containing 10 mM DTT), 1 μL of 10 mM glycosyl receptor (the glycosyl receptor of Os02g0589400 is isoorientin), 1 μL of 100 mM glycosyl donor (UDPG), and 10 μL of 2.03 μg/μL of recombinant protein of Os02g0589400 obtained in (2). React in water bath at 30° C. for 1 hour, and then stop the reaction with equal volume of methanol. A sample containing protein obtained from E. coli into which a pMAL-c2X mock vector was transferred according to the above step (2) was taken as the negative control. Centrifuge at 12,000 rpm, 4° C. for 10 min, 30 μL of the resulting supernatant was taken and measured by UPLC-QTOF/MS, and the measuring method was the same as that shown in Example 1.

Row | SMILES | embryo length of Echinochloa crus-galli compared with the control [1] | radicle length of Echinochloa crus-galli compared with the control [1] | glycosylation of the glycosyl receptor by Os02g0589400 recombinant protein compared with the mock control [2]
1 | O=c1cc(-c2ccc(O)c(O)c2)oc2cc(O)c([C@@H]3O[C@H](CO)[C@@H](O)[C@H](O)[C@H]3O[C@@H]3O[C@H](CO)[C@@H](O)[C@H](O)[C@H]3O)c(O)c12 [isoorientin-2″-O-glucopyranoside] | no significant difference | no significant difference | –
2 | O=c1cc(-c2ccc(O)c(O)c2)oc2cc(O)c([C@@H]3O[C@H](CO)[C@@H](O)[C@H](O)[C@H]3O)c(O)c12 [isoorientin] | no significant difference | significantly shortened | could catalyze isoorientin to produce isoorientin-2″-O-glucopyranoside
